How the values were obtained:
[1] = molecular target: T1, Sma nuc endonuclease (isoform Sm2) (Serratia marcescens, UniProt P13717); assay: hyperchromic RNA hydrolysis assay at […] nm; secondary double reciprocal plot of Lineweaver-Burk segments; format: biochemical
T1 construct: gene nucA; Sm2 known as the full 245-residue mature form (signal peptide removed)
T1 sequence (P13717 22-266): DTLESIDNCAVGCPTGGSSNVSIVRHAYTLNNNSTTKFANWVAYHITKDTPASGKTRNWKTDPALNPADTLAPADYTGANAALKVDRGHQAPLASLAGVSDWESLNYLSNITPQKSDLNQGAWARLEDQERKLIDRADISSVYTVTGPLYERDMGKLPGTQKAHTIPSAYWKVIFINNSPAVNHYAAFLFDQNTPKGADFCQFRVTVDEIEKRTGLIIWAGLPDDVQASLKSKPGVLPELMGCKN

[2] = molecular target: T1, Sma nuc endonuclease (isoform Sm2); assay: hyperchromic RNA hydrolysis assay at […] nm; Cornish-Bowden plot S/V against [I]; format: biochemical; details: RNA substrate 0.03-0.18 mM, 50 mM Tris-HCl pH 8.5, MgSO4 1.2-7.2 mM, 37 °C; uncompetitive

In the case of `Nc1ncnc2c1ncn2[C@@H]1O[C@H](COP(=O)(O)O)[C@@H](O)[C@H]1O` [AMP], the Ki [1] is reported as 76.5 µM.
In the case of `Nc1ccn([C@@H]2O[C@H](COP(=O)(O)O)[C@@H](O)[C@H]2O)c(=O)n1` [CMP], the “Ki” value [2] is reported as 86.2 µM.
For `Nc1nc2c(ncn2[C@@H]2O[C@H](COP(=O)(O)O)[C@@H](O)[C@H]2O)c(=O)[nH]1` [GMP], the “Ki” value [2] was 229 µM.
`O=c1ccn([C@@H]2O[C@H](COP(=O)(O)O)[C@@H](O)[C@H]2O)c(=O)[nH]1` [UMP] was tested, and the “Ki” value [2] was 310.7 µM.
Molecule `Nc1ncnc2c1ncn2[C@H]1C[C@H](O)[C@@H](COP(=O)(O)O)O1` [dAMP] has a Ki [1] of 60 µM.
